From the supplement of paper PMC13380429

Key:
Settings in all cases: 72 h
[1] = system: U2OS; assay: cell viability relative to DMSO; higher = less toxic
[2] = system: Calu-3; assay: as above
[3] = system: Caco-2; assay: as above
[4] = system: Vero E6; assay: as above
[5] = system: HepG2; assay: as above
[6] = system: U2OS; assay: drug sensitivity score (DSS) for viability; higher = more toxic; extreme values may be limits of the assay
[7] = system: Calu-3; assay: as above
[8] = system: Caco-2; assay: as above
[9] = system: Vero E6; assay: as above
[10] = system: HepG2; assay: as above
[11] = system: U2OS; assay: relative viability EC50 (midpoint between 100% and the lowest measured viability); higher = less toxic
[12] = system: Calu-3; assay: as above
[13] = system: Caco-2; assay: as above
[14] = system: Vero E6; assay: as above
[15] = system: HepG2; assay: as above

Row | SMILES | cell viability ([1]; 1 nM) [%] | cell viability ([1]; 10 nM) [%] | cell viability ([1]; 100 nM) [%] | cell viability ([1]; 1000 nM) [%] | cell viability ([1]; 10000 nM) [%] | cell viability ([2]; 1 nM) [%] | cell viability ([2]; 10 nM) [%] | cell viability ([2]; 100 nM) [%] | cell viability ([2]; 1000 nM) [%] | cell viability ([2]; 10000 nM) [%] | cell viability ([3]; 1 nM) [%] | cell viability ([3]; 10 nM) [%] | cell viability ([3]; 100 nM) [%] | cell viability ([3]; 1000 nM) [%] | cell viability ([3]; 10000 nM) [%] | cell viability ([4]; 1 nM) [%] | cell viability ([4]; 10 nM) [%] | cell viability ([4]; 100 nM) [%] | cell viability ([4]; 1000 nM) [%] | cell viability ([4]; 10000 nM) [%] | cell viability ([5]; 1 nM) [%] | cell viability ([5]; 10 nM) [%] | cell viability ([5]; 100 nM) [%] | cell viability ([5]; 1000 nM) [%] | cell viability ([5]; 10000 nM) [%] | drug sensitivity score [6] | drug sensitivity score [7] | drug sensitivity score [8] | drug sensitivity score [9] | drug sensitivity score [10] | relative viability EC50 [11] [µM] | relative viability EC50 [12] [µM] | relative viability EC50 [13] [µM] | relative viability EC50 [14] [µM] | relative viability EC50 [15] [µM]
1 | Cc1ccc(S(=O)(=O)N2CCC[C@H]2c2ccc(F)cc2)cc1 [Ro-67-7476] | 98.8 | 95.1 | 107 | 99.4 | 99.2 | 106 | 101 | 94.4 | 98.1 | 105 | 96.6 | 102 | 102 | 97.3 | 104 | 109 | 104 | 94.1 | 104 | 100 | 106 | 104 | 96.2 | 102 | 97.4 | 0 | 0 | 0 | 0 | 0 | > 10 | > 10 | > 10 | > 10 | > 10
2 | Fc1ccc(Cl)cc1-c1nc(Nc2ccncc2)c2nccnc2n1 [SD-208] | 103 | 101 | 96.5 | 90.1 | 91.2 | 107 | 94.9 | 111 | 105 | 103 | 108 | 102 | 104 | 93.4 | 93.2 | 102 | 103 | 106 | 96.5 | 86.2 | 107 | 107 | 103 | 95.6 | 98.2 | 0 | 0 | 0 | 0.4 | 0 | > 10 | > 10 | > 10 | > 10 | > 10
3 | C=C(C)CN1CC[C@]23c4c5ccc(O)c4O[C@H]2c2[nH]c4ccccc4c2C[C@@]3(O)C1C5 [SDM25N] | 93.7 | 100 | 100 | 101 | 91.8 | 92.8 | 86.2 | 93.5 | 110 | 82.4 | 92.9 | 102 | 89.9 | 101 | 86.4 | 90.7 | 93.1 | 95.6 | 96.6 | 88.8 | 92.7 | 101 | 100 | 102 | 80.7 | 0 | 0.2 | 0.1 | 0 | 0.4 | > 10 | > 10 | > 10 | > 10 | > 10
4 | CCN(CC)CCOC(=O)c1cc(Cl)c(N)cc1OC [SDZ-205-557] | 98.9 | 102 | 97 | 103 | 98.3 | 107 | 101 | 88 | 96.6 | 90.1 | 95.5 | 101 | 97.9 | 106 | 104 | 106 | 104 | 99 | 94.8 | 97.3 | 105 | 97.1 | 90.6 | 93.3 | 102 | 0 | 0 | 0 | 0 | 0 | > 10 | > 10 | > 10 | > 10 | > 10
5 | CO[C@@H]1[C@H](O)[C@@H](CO)O[C@H]1n1cnc2c(NC3CCCCC3)ncnc21 [SDZ-WAG-994] | 93.6 | 100 | 97 | 103 | 108 | 88.5 | 89.5 | 83.3 | 88.3 | 109 | 84.7 | 95.4 | 90 | 103 | 99.5 | 99.5 | 94.7 | 97.1 | 95.2 | 109 | 88 | 93.4 | 104 | 93 | 101 | 0 | 0 | 0 | 0 | 0 | > 10 | > 10 | > 10 | > 10 | > 10
6 | Cc1ccc(S(=O)(=O)OCC(=O)Nc2ccc(C(=O)O)c(O)c2)cc1 [STAT3-inhibitor-VI] | 103 | 96 | 101 | 104 | 99 | 102 | 95.1 | 102 | 96.2 | 101 | 101 | 93.1 | 90.6 | 90.8 | 99.9 | 98.3 | 97.6 | 94.1 | 98.9 | 89.8 | 102 | 104 | 96.2 | 92.1 | 95.6 | 0 | 0 | 0 | 0 | 0 | > 10 | > 10 | > 10 | > 10 | > 10
7 | N#Cc1ccc(N(Cc2ccc(Br)cc2)n2cnnc2)cc1 [YM-511] | 104 | 96.4 | 103 | 98.4 | 101 | 95.9 | 97.8 | 92.4 | 97.4 | 99.3 | 108 | 92 | 94.1 | 92 | 88.3 | 103 | 98 | 100 | 106 | 96.6 | 104 | 102 | 99.8 | 96.6 | 98 | 0 | 0 | 0.2 | 0 | 0 | > 10 | > 10 | > 10 | > 10 | > 10
